# From PubChem BioAssay (NCI)
#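 All cell lines were grown in 96-well plates and treated with compound for 48 hours. GI50 marks 50% less growth. TGI marks complete inhibition of growth.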
# Tests used:
# Assay in all cases: NCI tumour cell line growth inhibition, 48 h
# LOX IMVI melanoma = tested on: LOX IMVI melanoma
# HCC-2998 colon = tested on: HCC-2998 colon
# SF-295 CNS = tested on: SF-295 CNS
# SNB-75 CNS = tested on: SNB-75 CNS
# NCI/ADR-RES ovarian = tested on: NCI/ADR-RES ovarian
# NCI-H460 lung = tested on: NCI-H460 lung
# 786-0 renal = tested on: 786-0 renal
# HOP-92 NSCLC = tested on: HOP-92 NSCLC
# SW-620 colon = tested on: SW-620 colon
# OVCAR-5 ovarian = tested on: OVCAR-5 ovarian
# U251 CNS = tested on: U251 CNS
# T-47D breast = tested on: T-47D breast
# A498 renal = tested on: A498 renal
# DU-145 prostate = tested on: DU-145 prostate
# PC-3 prostate = tested on: PC-3 prostate
# MDA-MB-231 breast = tested on: MDA-MB-231 breast
# SK-MEL-2 melanoma = tested on: SK-MEL-2 melanoma
# K-562 leukemia = tested on: K-562 leukemia
# M14 melanoma = tested on: M14 melanoma
# HT29 colon = tested on: HT29 colon
# MOLT-4 leukemia = tested on: MOLT-4 leukemia
# COLO 205 colon = tested on: COLO 205 colon
# MCF7 breast = tested on: MCF7 breast
# NCI-H226 lung = tested on: NCI-H226 lung
# SR leukemia = tested on: SR leukemia
# UACC-62 melanoma = tested on: UACC-62 melanoma
# SK-OV-3 ovarian = tested on: SK-OV-3 ovarian
# UO-31 renal = tested on: UO-31 renal
# IGROV1 ovarian = tested on: IGROV1 ovarian
# SF-268 CNS = tested on: SF-268 CNS
# SN12C renal = tested on: SN12C renal
# UACC-257 melanoma = tested on: UACC-257 melanoma
# HL-60(TB) leukemia = tested on: HL-60(TB) leukemia
# NCI-H23 lung = tested on: NCI-H23 lung
# NCI-H522 lung = tested on: NCI-H522 lung
# TK-10 renal = tested on: TK-10 renal
# HOP-62 NSCLC = tested on: HOP-62 NSCLC
# RXF 393 renal = tested on: RXF 393 renal
# SK-MEL-28 melanoma = tested on: SK-MEL-28 melanoma
# RPMI-8226 leukemia = tested on: RPMI-8226 leukemia
# OVCAR-8 ovarian = tested on: OVCAR-8 ovarian
# ACHN renal = tested on: ACHN renal
# SF-539 CNS = tested on: SF-539 CNS
# MDA-MB-435 = tested on: MDA-MB-435
# HCT-15 colon = tested on: HCT-15 colon
# EKVX NSCLC = tested on: EKVX NSCLC
# SK-MEL-5 melanoma = tested on: SK-MEL-5 melanoma
# CCRF-CEM leukemia = tested on: CCRF-CEM leukemia
# OVCAR-3 ovarian = tested on: OVCAR-3 ovarian
# BT-549 breast = tested on: BT-549 breast
# KM12 colon = tested on: KM12 colon
# A549 NSCLC = tested on: A549 NSCLC
# SNB-19 CNS = tested on: SNB-19 CNS
# OVCAR-4 ovarian = tested on: OVCAR-4 ovarian
# MALME-3M melanoma = tested on: MALME-3M melanoma
# HS 578T breast = tested on: HS 578T breast
# HCT-116 colon = tested on: HCT-116 colon
compound,measurement,setting,value
COc1ccc(C[n+]2c3ccccc3n3c4ccc(N)cc4ccc32)c(OC)c1OC,GI50,LOX IMVI melanoma,10.7 µM
same,TGI,LOX IMVI melanoma,36.3 µM
same,GI50,HCC-2998 colon,4 µM
same,TGI,HCC-2998 colon,24.7 µM
same,GI50,SF-295 CNS,4.22 µM
same,TGI,SF-295 CNS,38.1 µM
same,GI50,SNB-75 CNS,1450 nM
same,TGI,SNB-75 CNS,10.8 µM
same,GI50,NCI/ADR-RES ovarian,> 100 µM
same,TGI,NCI/ADR-RES ovarian,> 100 µM
same,GI50,NCI-H460 lung,3.54 µM
same,TGI,NCI-H460 lung,18.2 µM
same,GI50,786-0 renal,34.9 µM
same,TGI,786-0 renal,> 100 µM
same,GI50,HOP-92 NSCLC,571 nM
same,TGI,HOP-92 NSCLC,3.77 µM
same,GI50,SW-620 colon,8.39 µM
same,TGI,SW-620 colon,36.5 µM
same,GI50,OVCAR-5 ovarian,12.1 µM
same,TGI,OVCAR-5 ovarian,78.5 µM
same,GI50,U251 CNS,1700 nM
same,TGI,U251 CNS,14.5 µM
same,GI50,T-47D breast,1420 nM
same,TGI,T-47D breast,7.03 µM
same,GI50,A498 renal,17.5 µM
same,TGI,A498 renal,61.9 µM
same,GI50,DU-145 prostate,6.42 µM
same,TGI,DU-145 prostate,78.1 µM
same,GI50,PC-3 prostate,1820 nM
same,TGI,PC-3 prostate,13.7 µM
same,GI50,MDA-MB-231 breast,9.25 µM
same,TGI,MDA-MB-231 breast,31.7 µM
same,GI50,SK-MEL-2 melanoma,3.78 µM
same,TGI,SK-MEL-2 melanoma,14.8 µM
same,GI50,K-562 leukemia,4.87 µM
same,TGI,K-562 leukemia,> 100 µM
same,GI50,M14 melanoma,14.9 µM
same,TGI,M14 melanoma,33.3 µM
same,GI50,HT29 colon,4.63 µM
same,TGI,HT29 colon,33.2 µM
same,GI50,MOLT-4 leukemia,3.14 µM
same,TGI,MOLT-4 leukemia,35.2 µM
same,GI50,COLO 205 colon,1900 nM
same,TGI,COLO 205 colon,5.65 µM
same,GI50,MCF7 breast,1110 nM
same,TGI,MCF7 breast,26.1 µM
same,GI50,NCI-H226 lung,12.8 µM
same,TGI,NCI-H226 lung,60.8 µM
same,GI50,SR leukemia,2750 nM
same,TGI,SR leukemia,19.2 µM
same,GI50,UACC-62 melanoma,2620 nM
same,TGI,UACC-62 melanoma,10.9 µM
same,GI50,SK-OV-3 ovarian,10.4 µM
same,TGI,SK-OV-3 ovarian,49.2 µM
same,GI50,UO-31 renal,40.1 µM
same,TGI,UO-31 renal,> 100 µM
same,GI50,IGROV1 ovarian,4.58 µM
same,TGI,IGROV1 ovarian,40 µM
same,GI50,SF-268 CNS,2420 nM
same,TGI,SF-268 CNS,15.5 µM
same,GI50,SN12C renal,626 nM
same,TGI,SN12C renal,11 µM
same,GI50,UACC-257 melanoma,2560 nM
same,TGI,UACC-257 melanoma,8.02 µM
same,GI50,HL-60(TB) leukemia,3.09 µM
same,TGI,HL-60(TB) leukemia,11.7 µM
same,GI50,NCI-H23 lung,1990 nM
same,TGI,NCI-H23 lung,24.9 µM
same,GI50,NCI-H522 lung,2080 nM
same,TGI,NCI-H522 lung,15.7 µM
same,GI50,TK-10 renal,22.4 µM
same,TGI,TK-10 renal,79.4 µM
same,GI50,HOP-62 NSCLC,7.4 µM
same,TGI,HOP-62 NSCLC,33.1 µM
same,GI50,RXF 393 renal,6.3 µM
same,TGI,RXF 393 renal,21.9 µM
same,GI50,SK-MEL-28 melanoma,1890 nM
same,TGI,SK-MEL-28 melanoma,5.56 µM
same,GI50,RPMI-8226 leukemia,512 nM
same,TGI,RPMI-8226 leukemia,7.64 µM
same,GI50,OVCAR-8 ovarian,6.48 µM
same,TGI,OVCAR-8 ovarian,32.5 µM
same,GI50,ACHN renal,36.2 µM
same,TGI,ACHN renal,> 100 µM
same,GI50,SF-539 CNS,2890 nM
same,TGI,SF-539 CNS,15.2 µM
same,GI50,MDA-MB-435,2920 nM
same,TGI,MDA-MB-435,13.5 µM
same,GI50,HCT-15 colon,82.1 µM
same,TGI,HCT-15 colon,> 100 µM
same,GI50,EKVX NSCLC,3.08 µM
same,TGI,EKVX NSCLC,58.9 µM
same,GI50,SK-MEL-5 melanoma,1440 nM
same,TGI,SK-MEL-5 melanoma,7.27 µM
same,GI50,CCRF-CEM leukemia,4.28 µM
same,TGI,CCRF-CEM leukemia,45.7 µM
same,GI50,OVCAR-3 ovarian,1690 nM
same,TGI,OVCAR-3 ovarian,8.97 µM
same,GI50,BT-549 breast,2420 nM
same,TGI,BT-549 breast,16.5 µM
same,GI50,KM12 colon,2410 nM
same,TGI,KM12 colon,13.7 µM
same,GI50,A549 NSCLC,19.3 µM
same,TGI,A549 NSCLC,> 100 µM
same,GI50,SNB-19 CNS,1420 nM
same,TGI,SNB-19 CNS,15.8 µM
same,GI50,OVCAR-4 ovarian,2270 nM
same,TGI,OVCAR-4 ovarian,31.9 µM
same,GI50,MALME-3M melanoma,2080 nM
same,TGI,MALME-3M melanoma,7.48 µM
same,GI50,HS 578T breast,5.81 µM
same,TGI,HS 578T breast,35.2 µM
same,GI50,HCT-116 colon,12.6 µM
same,TGI,HCT-116 colon,83.7 µM
